Reference: patent US10047071B1, “Dihydropyrimidinone derivatives” (KING SAUD UNIVERSITY, priority 2018, dated 2018)

For `O=C1NC=C(C(=O)c2ccc(-n3ccnc3)cc2)C(c2ccccc2)N1` (centres unmarked) [Compound 1, 5-[4-(1H-imidazol-1-yl)benzoyl]-4-phenyl-3,4-dihydropyrimidin-2(1H)-one], the melting point was 130 to 132 °C.
`O=C1NC=C(C(=O)c2ccc(-n3ccnc3)cc2)C(c2ccccc2[N+](=O)[O-])N1` (centres unmarked) [Compound 2, 5-[4-(1H-imidazol-1-yl)benzoyl]-4-(2-nitrophenyl)-3,4-dihydropyrimidin-2(1H)-one] gave a melting point of 155 to 157 °C.
Work on `O=C1NC=C(C(=O)c2ccc(-n3ccnc3)cc2)C(c2ccc([N+](=O)[O-])cc2)N1` (centres unmarked) [Compound 3, 5-[4-(1H-imidazol-1-yl)benzoyl]-4-(4-nitrophenyl)-3,4-dihydropyrimidin-2(1H)-one] yielded a melting point of 158 to 160 °C.
`O=C1NC=C(C(=O)c2ccc(-n3ccnc3)cc2)C(c2cccc([N+](=O)[O-])c2)N1` (centres unmarked) [Compound 4, 5-[4-(1H-imidazol-1-yl)benzoyl]-4-(3-nitrophenyl)-3,4-dihydropyrimidin-2(1H)-one] gave a melting point of 160 to 162 °C.
For `O=C1NC=C(C(=O)c2ccc(-n3ccnc3)cc2)C(c2ccc(Cl)cc2)N1` (centres unmarked) [Compound 5, 4-(4-chlorophenyl)-5-[4-(1H-imidazol-1-yl)benzoyl]-3,4-dihydropyrimidin-2(1H)-one], the melting point was 180 to 182 °C.
Work on `O=C1NC=C(C(=O)c2ccc(-n3ccnc3)cc2)C(c2ccc(Cl)cc2Cl)N1` (centres unmarked) [Compound 6, 4-(2,4-dichlorophenyl)-5-[4-(1H-imidazol-1-yl)benzoyl]-3,4-dihydropyrimidin-2(1H)-one] yielded a melting point of 138 to 140 °C.
`COc1ccccc1C1NC(=O)NC=C1C(=O)c1ccc(-n2ccnc2)cc1` (centres unmarked) [Compound 7, 5-[4-(1H-imidazol-1-yl)benzoyl]-4-(2-methoxyphenyl)-3,4-dihydropyrimidin-2(1H)-one] showed a melting point of 140 to 142 °C.
In the case of `O=C1NC=C(C(=O)c2ccc(-n3ccnc3)cc2)C(c2cccc(O)c2)N1` (centres unmarked) [Compound 9, 4-(3-hydroxyphenyl)-5-[4-(1H-imidazol-1-yl)benzoyl]-3,4-dihydropyrimidin-2(1H)-one], the melting point is reported as 190 to 192 °C.
With `COc1cccc(C2NC(=O)NC=C2C(=O)c2ccc(-n3ccnc3)cc2)c1` (centres unmarked) [Compound 10, 5-[4-(1H-imidazol-1-yl)benzoyl]-4-(3-methoxyphenyl)-3,4-dihydropyrimidin-2(1H)-one] the melting point was 125 to 127 °C.
Work on `COc1cc(OC)c(C2NC(=O)NC=C2C(=O)c2ccc(-n3ccnc3)cc2)cc1OC` (centres unmarked) [Compound 11, 5-[4-(1H-imidazol-1-yl)benzoyl]-4-(2,4,5-trimethoxyphenyl)-3,4-dihydropyrimidin-2(1H)-one] yielded a melting point of 135 to 137 °C.
In the case of `COc1ccc(C2NC(=O)NC=C2C(=O)c2ccc(-n3ccnc3)cc2)c(OC)c1OC` (centres unmarked) [Compound 12, 5-[4-(1H-imidazol-1-yl)benzoyl]-4-(2,3,4-trimethoxyphenyl)-3,4-dihydropyrimidin-2(1H)-one], the melting point is reported as 138 to 140 °C.
Compound `COc1cc(C2NC(=O)NC=C2C(=O)c2ccc(-n3ccnc3)cc2)cc(OC)c1OC` (centres unmarked) [Compound 13, 5-[4-(1H-imidazol-1-yl)benzoyl]-4-(3,4,5-trimethoxyphenyl)-3,4-dihydropyrimidin-2(1H)-one] has a melting point of 128 to 130 °C.
Compound `COc1cc(OC)c(C2NC(=O)NC=C2C(=O)c2ccc(-n3ccnc3)cc2)c(OC)c1` (centres unmarked) [Compound 14, 5-[4-(1H-imidazol-1-yl)benzoyl]-4-(2,4,6-trimethoxyphenyl)-3,4-dihydropyrimidin-2(1H)-one] has a melting point of 130 to 132 °C.
In the case of `COc1ccc(C2NC(=O)NC=C2C(=O)c2ccc(-n3ccnc3)cc2)cc1OC` (centres unmarked) [Compound 15, 5-[4-(1H-imidazol-1-yl)benzoyl]-4-(3,4-dimethoxyphenyl)-3,4-dihydropyrimidin-2(1H)-one], the melting point is reported as 136 to 138 °C.
